Activity calls are given as the source filed them.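 The calls were made as follows: active = fitted curve reaches 40% activation at a concentration no higher than the top valid tested dose; inconclusive = flat fit between 30% and 70% activation, or poor fit; inactive = uptake decrease, flat fit within 30% of zero, the rest.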
These molecules were tested against Scavenger receptor class B member 1 (Mus musculus) (UniProt Q61009) (assay: activators of SR-BI-mediated HDL uptake, dose response, cell-based, ldlA[mSR-BI] CHO, DiI fluorescence, cherry-pick (AID 602191;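 also: cell fluorescence from internalized DiI-labeled HDL after washing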;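 as to AC40: potency of activators raising HDL uptake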;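 as to activation (HDL uptake increase): 0% = median of DMSO wells and 100% = twice the DMSO signal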)). Conditions: ldlA[mSR-BI] CHO cells, 3 h.
Scavenger receptor class B member 1 (Mus musculus), sequence (Q61009 whole entry, looked up): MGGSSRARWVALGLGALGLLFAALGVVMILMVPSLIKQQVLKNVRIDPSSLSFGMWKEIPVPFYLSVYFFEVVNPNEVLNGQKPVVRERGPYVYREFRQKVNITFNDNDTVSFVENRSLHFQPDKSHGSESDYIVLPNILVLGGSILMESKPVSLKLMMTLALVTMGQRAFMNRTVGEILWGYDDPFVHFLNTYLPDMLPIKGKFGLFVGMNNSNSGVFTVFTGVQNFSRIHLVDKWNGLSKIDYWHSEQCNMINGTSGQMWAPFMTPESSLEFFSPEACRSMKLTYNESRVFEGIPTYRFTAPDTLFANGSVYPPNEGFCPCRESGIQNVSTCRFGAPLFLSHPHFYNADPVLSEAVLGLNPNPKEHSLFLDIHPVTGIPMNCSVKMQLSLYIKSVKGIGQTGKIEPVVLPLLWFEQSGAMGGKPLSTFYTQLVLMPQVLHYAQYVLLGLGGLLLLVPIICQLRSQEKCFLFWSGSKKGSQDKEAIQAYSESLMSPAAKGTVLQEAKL

Compound | AC40
FC(F)(F)c1ccc(C2[C@H]3CN(Cc4cccnc4)[C@H](c4ccccc4)C34CC2(c2cccnc2)C4)cc1 (stereo not given in full) | > 35 µM (inactive)
C[C@H](CO)N1C[C@H](C)[C@@H](CN(C)S(=O)(=O)c2ccccc2)Oc2ccc(NC(=O)Nc3ccc(C(F)(F)F)cc3)cc2C1=O | 34.6 µM
CC(C)NC(=O)C1(O)c2ccccc2NC(=O)N1c1ccc(Cl)c(Cl)c1 (stereo not given) | > 35 µM (inactive)
O=C(C[C@H]1C[C@H](C(=O)N2CCCCC2)[C@@]2(CCc3ccccc3)c3[nH]c4ccc(Cl)cc4c3CCN2C1=O)NCCc1ccccn1 | > 35 µM (inactive)
CC(C)(C)NC(=O)C[C@H]1C[C@H](C(=O)N2CCOCC2)[C@@]2(CCC3CCCC3)c3[nH]c4ccc(Cl)cc4c3CCN2C1=O | > 35 µM (inactive)
CCOc1ccc(CN2CCNC(=O)C2CC(=O)NCC2CCOCC2)cc1 (stereo not given) | > 35 µM (inactive)

Same assay, conditions: ldlA[mSR-BI] CHO cells, 3 h, at 35 µM (top of the series)

Compound | activation (HDL uptake increase)
CC(C)C[C@H](NC(=O)c1nc[nH]c1C(=O)NC1CCN(C(=O)OC(C)(C)C)CC1)C(=O)OC(C)(C)C | -3.21% (inactive)
CCCCNC(=O)CCCCC(=O)N/N=C/c1cccc(Cl)c1 | -17.4% (inactive)
COc1ccc(N2CC(NS(=O)(=O)c3cccnc3)CC2=O)cc1 (stereo not given) | -6.57% (inactive)
O=C(COC(=O)C1CC1)Nc1ccc(OC(F)F)cc1 | 4.41% (inactive)
CCOC(=O)[C@H]1[C@H]2COc3ccccc3[C@@H]2N2C(=O)CN(Cc3ccccc3)C(=O)[C@@]12C | -9.27% (inactive)
COc1ccc(Cn2c(N)c(S(=O)(=O)c3cccs3)c3nc4ccccc4nc32)cc1 | -19.6% (inactive)
O=C(CN1CCN(S(=O)(=O)c2ccc(F)cc2)CC1)Nc1ccc(F)cc1F | 5.31% (inactive)
CCCCn1c(CN2CCN(C(=O)c3ccco3)CC2)nc2c1c(=O)n(C)c(=O)n2C | 2.07% (inactive)
CCCN1CCC(NC(=O)C2CCCCC2C(=O)O)CC1 (stereo not given) | -8.02% (inactive)
CC(C)(C)NC(=O)C[C@H]1C[C@H](C(=O)N2CCOCC2)[C@@]2(CCC3CCCC3)c3[nH]c4cc(-c5ccco5)ccc4c3CCN2C1=O | -1.73% (inactive)
Cc1ccc(OCCC(=O)OCC(=O)NNC(=O)c2ccccc2)cc1 | 8.09% (inactive)
O=C(CCN1C(=O)[C@@H]2Cc3ccccc3CN2C1=O)N[C@@H](C(=O)O)c1ccccc1 | -2.01% (inactive)
COc1ccc(N2CC(NC(=O)N3CCN(C(=O)c4ccco4)CC3)CC2=O)cc1OC (stereo not given) | 11% (inactive)
C=CC[C@@H](CC(=O)N[C@@H](CO)Cc1ccccc1)C(=O)N[C@@H](COC(=O)[C@@H](CC=C)Cc1ccc(F)cc1)Cc1c[nH]c2ccccc12 | -7.03% (inactive)
Cc1ccc(SCC(=O)NNC(=O)CCS(=O)(=O)c2ccc(C)cc2)cc1 | 0.551% (inactive)
CC(C)(C)n1nc2c(c1NC(=O)Cc1ccc(F)cc1)CS(=O)(=O)C2 | 9.82% (inactive)
Cc1ccc(C(=O)NCCCN2CCOCC2)cc1S(=O)(=O)N1CCCCC1 | 9.53% (inactive)
O=C1CCCC/C=C\C[C@H](CC(=O)N(CCO)Cc2ccccc2)C(=O)N2CCC[C@@H]2CO1 | -5.56% (inactive)
CC[C@]12c3[nH]c4cc(-c5ccco5)ccc4c3CCN1C(=O)[C@@H](CC(=O)NC(C)(C)C)C[C@@H]2C(=O)N1CCN(C(=O)c2ccco2)CC1 | -20.6% (inactive)
O=C(NCC(=O)N1CCN(c2ccccc2)CC1)c1ccc(Br)o1 | -14.4% (inactive)
O=C1N[C@@H](c2ccccc2)COC(=O)[C@H](Cc2ccc(F)cc2)CC/C=C/C[C@H]1CC(=O)N(CCO)Cc1ccccc1 | -5.36% (inactive)
C[C@H](NC(=O)c1nc[nH]c1C(=O)NCc1ccccc1)c1ccccc1 | -1.54% (inactive)
CN(C(=O)COC(=O)CN1C(=O)c2cccc([N+](=O)[O-])c2C1=O)c1ccccc1 | -5.58% (inactive)
CSCCC(NC(=O)c1ccco1)C(=O)NC1CCC(C)CC1 (stereo not given) | -3.23% (inactive)
Cc1nc2c3ccccc3nc(NNC(=O)CCC(=O)N3CCN(c4ccccc4)CC3)n2n1 | 6.41% (inactive)

Compound | activation (HDL uptake increase)
O=C(COC(=O)C1CCCCC1)Nc1cccc(Br)c1 | -5.26% (inactive)
COC(=O)[C@@]12CCCCN1[C@H](c1ccc(-c3ccc(C(C)=O)cc3)c(OC)c1)[C@@H]1C(=O)N(C)C(=O)[C@@H]12 | -14% (inactive)
O=C(CCN1C(=O)/C(=C\C=C\c2ccccc2)SC1=S)Nc1ccc(C(=O)O)cc1 | -14.1% (inactive)
CC(C)C[C@@H](CN1CCCC1CN1C(=S)NC[C@@H]1Cc1ccc(O)cc1)N1C[C@H](Cc2ccc(O)cc2)N(CCc2ccccc2)C1=S (stereo not given in full) | 39.2% (inactive)
Cc1ccc(C(c2nnnn2C2CCCCC2)N2CCN3CCCC3C2)cc1 (stereo not given) | -9.01% (inactive)
COc1cccc(N2CCN(c3ccc4nnc(CCC(=O)Nc5cc(C)ccn5)n4n3)CC2)c1 | -11.4% (inactive)
COc1ccc2c(c1)C(C)(CCN)C(=O)N2C (stereo not given) | -0.472% (inactive)
Cc1ccc(N2C(=O)C3C(C(=O)c4ccccc4)=NN(c4ccccc4)C3C2=O)cc1 (stereo not given) | 0.966% (inactive)
CC1CCc2c(C(=O)NCCN3CCOCC3)csc2C1 (stereo not given) | -15.7% (inactive)
CCOc1ccc(CN2CCNC(=O)C2CC(=O)NCCCOc2cccnc2)cc1 (stereo not given) | -10.4% (inactive)
CN1CCN(C(=O)c2ccccc2NC(=O)c2ccccc2Br)CC1 | -7.48% (inactive)
COc1ccc(NC(=O)CN(C)C(=O)C2(c3ccccc3)CCCC2)cc1 | -15.3% (inactive)
CCOC(=O)C1CCCN(S(=O)(=O)c2ccc(S(=O)(=O)N3CCCC3)cc2)C1 (stereo not given) | -3.5% (inactive)
NNC(=O)CNC(c1ccccc1)c1cc(Br)ccc1NC(=O)CCN1CCOCC1 (stereo not given) | -9.57% (inactive)
NC(=O)C1CCN(C(=O)C2CC(=O)N(Cc3ccccc3)C2)CC1 (stereo not given) | -2.16% (inactive)
O=C(c1ccc(Cl)cc1)C1CCCN(Cc2ccc3ncccc3c2)C1 (stereo not given) | 12.3% (inactive)
O=C(O)CCc1nnc(SCC(=O)Nc2ccc(Br)cc2)[nH]c1=O | -2.46% (inactive)
C[C@@H](C(=O)OCC(=O)c1ccccc1)N1C(=O)C2CCCCC2C1=O (stereo not given in full) | -7.88% (inactive)
COc1cccc(OCc2cc(C(=O)NC3CCOCC3)no2)c1 | -16.2% (inactive)
CN(C)CCCNC(=O)Cc1ccc(Br)cc1 | 0.791% (inactive)
O=S(=O)(c1ccccc1)N1CCN(Cc2c(O)ccc3ccccc23)CC1 | -12% (inactive)
CCOc1ccc(N(C(=O)c2ccc3c(c2)OCO3)C2C=CS(=O)(=O)C2)cc1 (stereo not given) | -7.61% (inactive)
O=C(Cn1c(=O)cnc2ccccc21)NNC(=O)c1ccc(Cl)cc1 | -5.85% (inactive)
CC(C)(C)c1ccccc1NC(=O)CN1C(=O)NC2(CCCCCC2)C1=O | -12.4% (inactive)
CCCC(=O)OCC(=O)Nc1ccc(OC(F)F)cc1 | 1.74% (inactive)

Compound | activation (HDL uptake increase)
COC(=O)Cc1c(C)c2ccc(OCc3nn[nH]n3)cc2oc1=O | 4.87% (inactive)
Cc1noc(/C=C/N(C)C)c1S(=O)(=O)N1CCCC(C(=O)NCc2ccco2)C1 (stereo not given) | -1.39% (inactive)
Cc1ccc(S(=O)(=O)c2cc(OC(=O)c3ccco3)ccc2OC(=O)c2ccco2)cc1 | -6.59% (inactive)
CN(C)CCCNC(=O)/C=C/c1ccc2c(c1)OCO2 | -4.26% (inactive)
Cc1ccc(CN2CCNC(=O)C2CC(=O)N2CCN(c3ncccn3)CC2)o1 (stereo not given) | -8.96% (inactive)
COc1ccc(C(=O)NC(=O)CSc2nc3nc(C)cc(C)n3n2)cc1 | -8.5% (inactive)
CC(CN(C)Cc1ccccc1)OC(=O)c1cccc(F)c1 (stereo not given) | -8.97% (inactive)
Cc1c(/C(O)=C2/C(=O)C(=O)N(CCN3CCOCC3)C2c2cccnc2)cnn1-c1ccccc1 (stereo not given) | -0.755% (inactive)
O=C1C2C(c3ccccc3)CC=CC2[C@H](c2ccc(C(F)(F)F)cc2)N1Cc1ccccc1 (stereo not given in full) | -16.7% (inactive)
Cc1cccn2c(CN[C@@H]3CCCC[C@H]3c3ccccc3)c(C(=O)N3CCOCC3)nc12 | -6.75% (inactive)
O=C1CN(C(=O)COC(=O)C2=COCCO2)c2ccccc2N1 | 7.62% (inactive)
Cc1ccc(N2C(=O)C(Cc3ccc(O)cc3)NC2=S)cc1C (stereo not given) | -11.4% (inactive)
CC(=O)c1cccc(NC(=O)COC(=O)Cn2cnc3ccccc32)c1 | 12.6% (inactive)
CC(C)CC(CO)N1CCN(C(=O)c2cccc(C(F)(F)F)c2)CCC1=O (stereo not given) | -7.8% (inactive)
CC(=O)NC(Cc1ccccc1)C(=O)OCC(=O)c1ccccc1 (stereo not given) | -12% (inactive)
CN1CCN(C(=O)C2CCN(S(=O)(=O)c3ccc4c(c3)oc(=O)n4C)CC2)CC1 | -0.287% (inactive)
O=S(=O)(NCCc1cn2ccccc2n1)c1ccc(-c2ccccc2)cc1 | -1.66% (inactive)
COc1cccc(C(=O)COC(=O)CCC(=O)c2ccccc2)c1 | -0.792% (inactive)
CCN1CCN(C(CNS(=O)(=O)c2ccc(Br)cc2)c2cccnc2)CC1 (stereo not given) | -1.44% (inactive)
O=C(Cn1nc(-c2ccccc2)ccc1=O)Nc1ccc(-n2cnnn2)cc1 | 12% (inactive)
Cc1ccc(CS(=O)Cc2ccc(C(=O)NCc3ccccc3)o2)cc1 (stereo not given) | 4.99% (inactive)
Cn1c(C(=O)N2CCC(C(N)=O)CC2)cc2cc(Cl)ccc21 | -7.74% (inactive)
COCCN(CC(=O)Nc1cc(Cl)ccc1-n1cncn1)Cc1nc2ccccc2c(=O)[nH]1 | -4.92% (inactive)
CC(C)(C)OC(=O)C[C@H]1C/C=C\C[C@H](CC(=O)NCCO)C(=O)NCCOC1=O | -2.75% (inactive)

Source: PubChem BioAssay AID602191 (Broad Institute, 2012)
